Paper PMC11711049 (Cancer Science, 2024)

Tested on: patients with advanced gastric cancer and cholangiocarcinoma
Assay: Safety assessments
Type: in vivo, human
Conditions: 140 mg once daily

CNC(=O)n1ccc2cc(Oc3ccnc(NC(=O)c4ccc(C5CCN(CCO)CC5)cc4)c3)c(OCCOC)cc21 [Tasurgratinib]
SAEs considered related to the study drug: none and No treatment‐related SAEs | dose reductions attributed to AST increased: 1 n | dose reductions attributed to PPE syndrome: 2 n | dose reductions attributed to decreased appetite: 1 n | dose reductions attributed to paronychia: 2 n | dose reductions attributed to stomatitis: 1 n | drug‐related deaths: no drug‐related deaths | severity of all hyperphosphatemia events: grade 1 or 2 | ALT increased, TEAEs All grades (N = 16): 3 (18.8) n (%) | ALT increased, TEAEs Grade ≥3 (N = 16): 1 (6.3) n (%) | ALT increased, TRAEs All grades (N = 16): 2 (12.5) n (%) | ALT increased, TRAEs Grade ≥3 (N = 16): 0 (0.0) n (%) | AST increased, TEAEs All grades (N = 16): 4 (25.0) n (%) | AST increased, TEAEs Grade ≥3 (N = 16): 2 (12.5) n (%) | AST increased, TRAEs All grades (N = 16): 3 (18.8) n (%) | AST increased, TRAEs Grade ≥3 (N = 16): 1 (6.3) n (%) | Abdominal distension, TEAEs All grades (N = 16): 4 (25.0) n (%) | Abdominal distension, TEAEs Grade ≥3 (N = 16): 1 (6.3) n (%) | Abdominal distension, TRAEs All grades (N = 16): 0 (0.0) n (%) | Abdominal distension, TRAEs Grade ≥3 (N = 16): 0 (0.0) n (%) | Abdominal pain, TEAEs All grades (N = 16): 2 (12.5) n (%) | Abdominal pain, TEAEs Grade ≥3 (N = 16): 0 (0.0) n (%) | Abdominal pain, TRAEs All grades (N = 16): 0 (0.0) n (%) | Abdominal pain, TRAEs Grade ≥3 (N = 16): 0 (0.0) n (%) | All AEs, TEAEs All grades (N = 16): 16 (100.0) n (%) | All AEs, TEAEs Grade ≥3 (N = 16): 11 (68.8) n (%) | All AEs, TRAEs All grades (N = 16): 16 (100.0) n (%) | All AEs, TRAEs Grade ≥3 (N = 16): 2 (12.5) n (%) | Anemia, TEAEs All grades (N = 16): 4 (25.0) n (%) | Anemia, TEAEs Grade ≥3 (N = 16): 2 (12.5) n (%) | Anemia, TRAEs All grades (N = 16): 1 (6.3) n (%) | Anemia, TRAEs Grade ≥3 (N = 16): 0 (0.0) n (%) | Blood alkaline phosphatase increased, TEAEs All grades (N = 16): 3 (18.8) n (%) | Blood alkaline phosphatase increased, TEAEs Grade ≥3 (N = 16): 2 (12.5) n (%) | Blood alkaline phosphatase increased, TRAEs All grades (N = 16): 1 (6.3) n (%) | Blood alkaline phosphatase increased, TRAEs Grade ≥3 (N = 16): 0 (0.0) n (%) | Blood creatinine increased, TEAEs All grades (N = 16): 5 (31.3) n (%) | Blood creatinine increased, TEAEs Grade ≥3 (N = 16): 0 (0.0) n (%) | Blood creatinine increased, TRAEs All grades (N = 16): 3 (18.8) n (%) | Blood creatinine increased, TRAEs Grade ≥3 (N = 16): 0 (0.0) n (%) | Cancer pain, TEAEs All grades (N = 16): 2 (12.5) n (%) | Cancer pain, TEAEs Grade ≥3 (N = 16): 0 (0.0) n (%) | Cancer pain, TRAEs All grades (N = 16): 0 (0.0) n (%) | Cancer pain, TRAEs Grade ≥3 (N = 16): 0 (0.0) n (%) | Constipation, TEAEs All grades (N = 16): 3 (18.8) n (%) | Constipation, TEAEs Grade ≥3 (N = 16): 0 (0.0) n (%) | Constipation, TRAEs All grades (N = 16): 1 (6.3) n (%) | Constipation, TRAEs Grade ≥3 (N = 16): 0 (0.0) n (%) | Decreased appetite, TEAEs All grades (N = 16): 7 (43.8) n (%) | Decreased appetite, TEAEs Grade ≥3 (N = 16): 2 (12.5) n (%) | Decreased appetite, TRAEs All grades (N = 16): 2 (12.5) n (%) | Decreased appetite, TRAEs Grade ≥3 (N = 16): 0 (0.0) n (%) | Diarrhea, TEAEs All grades (N = 16): 6 (37.5) n (%) | Diarrhea, TEAEs Grade ≥3 (N = 16): 1 (6.3) n (%) | Diarrhea, TRAEs All grades (N = 16): 4 (25.0) n (%) | Diarrhea, TRAEs Grade ≥3 (N = 16): 0 (0.0) n (%) | Dry eye, TEAEs All grades (N = 16): 2 (12.5) n (%) | Dry eye, TEAEs Grade ≥3 (N = 16): 0 (0.0) n (%) | Dry eye, TRAEs All grades (N = 16): 1 (6.3) n (%) | Dry eye, TRAEs Grade ≥3 (N = 16): 0 (0.0) n (%) | Dry mouth, TEAEs All grades (N = 16): 3 (18.8) n (%) | Dry mouth, TEAEs Grade ≥3 (N = 16): 0 (0.0) n (%) | Dry mouth, TRAEs All grades (N = 16): 3 (18.8) n (%) | Dry mouth, TRAEs Grade ≥3 (N = 16): 0 (0.0) n (%) | Dry skin, TEAEs All grades (N = 16): 3 (18.8) n (%) | Dry skin, TEAEs Grade ≥3 (N = 16): 0 (0.0) n (%) | Dry skin, TRAEs All grades (N = 16): 3 (18.8) n (%) | Dry skin, TRAEs Grade ≥3 (N = 16): 0 (0.0) n (%) | Dysgeusia, TEAEs All grades (N = 16): 6 (37.5) n (%) | Dysgeusia, TEAEs Grade ≥3 (N = 16): 0 (0.0) n (%) | Dysgeusia, TRAEs All grades (N = 16): 5 (31.3) n (%) | Dysgeusia, TRAEs Grade ≥3 (N = 16): 0 (0.0) n (%) | Epistaxis, TEAEs All grades (N = 16): 2 (12.5) n (%) | Epistaxis, TEAEs Grade ≥3 (N = 16): 0 (0.0) n (%) | Epistaxis, TRAEs All grades (N = 16): 1 (6.3) n (%) | Epistaxis, TRAEs Grade ≥3 (N = 16): 0 (0.0) n (%) | Headache, TEAEs All grades (N = 16): 2 (12.5) n (%) | Headache, TEAEs Grade ≥3 (N = 16): 1 (6.3) n (%) | Headache, TRAEs All grades (N = 16): 0 (0.0) n (%) | Headache, TRAEs Grade ≥3 (N = 16): 0 (0.0) n (%) | Hyperphosphatemia, TEAEs All grades (N = 16): 16 (100.0) n (%) | Hyperphosphatemia, TEAEs Grade ≥3 (N = 16): 0 (0.0) n (%) | Hyperphosphatemia, TRAEs All grades (N = 16): 16 (100.0) n (%) | Hyperphosphatemia, TRAEs Grade ≥3 (N = 16): 0 (0.0) n (%) | Hypoalbuminemia, TEAEs All grades (N = 16): 3 (18.8) n (%) | Hypoalbuminemia, TEAEs Grade ≥3 (N = 16): 1 (6.3) n (%) | Hypoalbuminemia, TRAEs All grades (N = 16): 0 (0.0) n (%) | Hypoalbuminemia, TRAEs Grade ≥3 (N = 16): 0 (0.0) n (%) | Insomnia, TEAEs All grades (N = 16): 2 (12.5) n (%) | Insomnia, TEAEs Grade ≥3 (N = 16): 0 (0.0) n (%) | Insomnia, TRAEs All grades (N = 16): 0 (0.0) n (%) | Insomnia, TRAEs Grade ≥3 (N = 16): 0 (0.0) n (%) | Lipase increased, TEAEs All grades (N = 16): 2 (12.5) n (%) | Lipase increased, TEAEs Grade ≥3 (N = 16): 2 (12.5) n (%) | Lipase increased, TRAEs All grades (N = 16): 1 (6.3) n (%) | Lipase increased, TRAEs Grade ≥3 (N = 16): 1 (6.3) n (%)
